{"source": "paper PMC12948223", "about": "“HSP70 Interactome‐Mediated Proteolysis Targeting Chimera (HSP70‐PROTAC) for Ferroptosis‐Driven Cancer Treatment” (Advanced Science, 2025)", "key": {"GPX4": {"target": "T1, GPX4 (Homo sapiens, UniProt P36969)", "T1 sequence (P36969 1-170 isoform P36969-2)": "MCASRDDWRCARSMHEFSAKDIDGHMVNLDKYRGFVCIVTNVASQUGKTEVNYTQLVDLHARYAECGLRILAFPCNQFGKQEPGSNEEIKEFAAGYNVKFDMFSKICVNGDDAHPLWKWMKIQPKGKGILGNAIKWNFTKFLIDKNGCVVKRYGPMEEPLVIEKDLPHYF", "experiment": "Ubiquitination assay of GPX4 in HT1080 cells", "type": "cell-based", "parameters": "determine the changes in the endogenous levels of GPX4 by western blot assay; endogenous in cells; host or cells: HT1080 fibrosarcoma cells, including siRNA-knockdown derivatives", "details": "1 µM, 12 h", "description": "HT1080 cells were seeded in 15 cm culture dishes and allowed to adhere overnight. Then, the cells were treated with either 1 µM GDAz‐3 or an equivalent volume of DMSO for 12 h. Next, the proteasome inhibitor MG‐132 (5 µM) was added, and the cells were further incubated for 6 h. Once the incubation was completed, the cells were harvested and subjected to lysis using an IP lysis solution (#P0013J, Beyotime, Shanghai, China) to extract proteins. Then, the cell lysates were incubated with the GPX4 antibody (Proteintech, #67763‐1‐Ig, 1:100) overnight at 4 °C. Subsequently, protein A/G‐magnetic beads (#P2179, Beyotime, Shanghai, China) were added, and the mixture was incubated at 4 °C for 2 h on a rotator. After incubation, the beads were washed four times with immunoprecipitation buffer and then boiled in 1× loading buffer. The protein samples were then subjected to SDS‐PAGE analysis to evaluate the interactions between the target proteins. Finally, western blotting was used to detect proteins of interest in the co‐immunoprecipitation products. The ubiquitin assay was carried out under denaturing conditions."}, "intracellular LPO": {"test_system": "intracellular LPO", "experiment": "Intracellular LPO (C11-BODIPY 581/591, flow cytometry) in HT1080 cells", "type": "cell-based, human", "details": "12 h", "description": "The level of LPO was determined by flow cytometry using the C11‐BODIPY^581/591 dye. In short, HT1080 cells were incubated in 6‐well plates at a density of 5 × 10^4 cells per well for 24 h. After that, the culture medium was substituted with a fresh medium containing GDAz‐3, ML162, or a mixture of GDAz‐3 and Fer‐1 at the specified concentrations. Following a 12‐h incubation period, HT1080 cells were stained with C11‐BODIPY^581/591 dye for 10 min. Finally, the cell samples were collected, washed twice with phosphate‐buffered saline (PBS), and then analyzed by flow cytometry."}, "HT1080 xenograft tumor": {"test_system": "HT1080 xenograft tumor", "experiment": "HT1080 xenograft tumor mouse model, antitumor efficacy and safety", "type": "in vivo", "details": "for TGI (tumor growth inhibition): 17 days", "description": "Motivated by the aforementioned in vitro findings, we subsequently sought to evaluate the in vivo antitumor efficacy of GDAz‐3 using an HT1080 xenograft tumor mouse model. The tumor‐bearing mice were randomly divided into six groups, minimizing weight and tumor size differences among the groups (n = 6 in each group). The treatment group mice were administered once daily by intraperitoneal injection (IP) with GDAz‐3 at a dosage of 30 or 60 mg kg^−1, while the control group animals were treated with the corresponding solvent, ML162, and apoptozole at a dosage of 30 mg kg^−1. Additionally, we set up a drug combination group to confirm the superiority of GDAz‐3. After treatment for 17 days, animals were humanely euthanized and the tumors were excised (Figure 7B). […] The advantage of the safety of GDAz‐3 was also determined by the hematoxylin and eosin (H&E) staining. […] In general, compared with the single inhibitor or their combination, the in vivo antitumor study confirmed the efficacy and safety of GDAz‐3.\nThe experimental procedures of the animal experiments were permitted by the Hangzhou Institute of Medicine (HIM), Chinese Academy of Sciences (AP2024‐07‐0010). Male BALB/c nude mice (6 weeks old) were housed under pathogen‐free conditions, maintained at a constant room temperature, and fed standard rodent chow and water. An HT1080 fibrosarcoma xenograft model in nude mice was established through subcutaneous transplantation. When the tumors emerged, the mice were randomly divided into six groups with six mice in each group: GDAz‐3‐treated at 30 or 60 mg kg^−1 group and control groups, including the vehicle group, and each of the two inhibitor‐treated groups (ML162 and apoptozole) at 30 mg kg^−1, and their combinations. The mice were intraperitoneally (IP) injected daily according to their body weight. Body weight and tumor size were measured every other day, and the tumor volume and body weight were recorded every other day after drug treatment. After treatment, the animals were euthanized by cervical dislocation, and the tumor bulks were peeled off and weighed. The organ tissues (tumor, heart, liver, spleen, lung, and kidney) were harvested and fixed with 4% paraformaldehyde for hematoxylin‐eosin (H&E) and immunohistochemistry (IHC) staining. In addition, the expression of GPX4 in tumor samples was analyzed in vehicle‐ and GDAz‐3‐treated groups by western blot assay."}, "human Hsc70": {"target": "T2, human Hsc70 (Homo sapiens, UniProt P11142)", "T2 construct": "purchased MedChemExpress HY-P73915A", "T2 sequence (P11142 whole entry)": "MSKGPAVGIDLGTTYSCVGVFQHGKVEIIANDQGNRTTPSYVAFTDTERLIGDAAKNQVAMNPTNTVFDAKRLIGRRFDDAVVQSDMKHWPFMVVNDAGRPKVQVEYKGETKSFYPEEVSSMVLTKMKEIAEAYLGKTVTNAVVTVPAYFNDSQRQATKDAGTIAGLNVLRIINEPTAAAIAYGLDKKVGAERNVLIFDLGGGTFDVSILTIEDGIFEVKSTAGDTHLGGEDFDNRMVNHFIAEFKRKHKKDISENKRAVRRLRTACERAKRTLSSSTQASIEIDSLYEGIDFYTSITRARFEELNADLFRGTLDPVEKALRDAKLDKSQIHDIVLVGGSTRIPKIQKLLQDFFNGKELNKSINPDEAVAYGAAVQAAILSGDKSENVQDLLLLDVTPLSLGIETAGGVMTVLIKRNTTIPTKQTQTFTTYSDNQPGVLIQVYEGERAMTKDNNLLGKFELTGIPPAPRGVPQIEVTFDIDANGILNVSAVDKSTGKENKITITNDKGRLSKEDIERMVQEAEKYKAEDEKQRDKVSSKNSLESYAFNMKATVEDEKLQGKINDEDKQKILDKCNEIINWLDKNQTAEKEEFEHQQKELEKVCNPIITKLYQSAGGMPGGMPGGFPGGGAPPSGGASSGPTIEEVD", "experiment": "SPR binding to immobilized Hsc70 (binary)", "details": "immobilized Hsc70, 25 °C", "description": "The SPR data was generated by our Shared Instrumentation Core Facility at the Hangzhou Institute of Medicine (HIM), Chinese Academy of Sciences. The in vitro binding affinity of compound GDAz‐3 to recombinant proteins (Hsc70, MedChemExpress, #HY‐P73915A; GPX4, Cayman, Item No. 26 906) was evaluated using a Biacore 8K system (Cytiva (GE)) with the method of LMW multi‐cycle kinetics/affinity. Pipelines and chips were flushed with PBS (pH 7.4) running buffer, and then, human Hsc70 was immobilized on a CM5 sensor chip. Analysis was performed at a flow rate of 30 µL min^−1 at 25 °C with the injection of incremental concentrations of compounds dissolved in buffer solution (the final concentration of DMSO was 5%). For ternary‐complex binding measurements, Hsc70 was immobilized on a CM5 sensor chip, and compound GDAz‐3 at a concentration of 1 µM was preincubated with GPX4. The binding and dissociation durations were recorded as response unit values for 120 and 120 s in succession, respectively. Finally, the data were analyzed by Biacore evaluation software with the method of LMW multi‐cycle kinetics/affinity."}}, "note": "pKd: −log10 of the molar value."}
{"smiles": "COc1ccc(-c2nc(-c3cc(C(F)(F)F)cc(C(F)(F)F)c3)n(Cc3ccc(C(=O)NCCOCCOCCOCCn4cc(COc5ccc(N(C(=O)CCl)C(C(=O)NCCc6ccccc6)c6cccs6)cc5Cl)nn4)cc3)c2-c2ccc(OC)cc2)cc1", "note": "(stereo not shown) [GDAz-3, 4-((2-(3,5-bis(trifluoromethyl)phenyl)-4,5-bis(4-methoxyphenyl)-1H-imidazol-1-yl)methyl)-N-(2-(2-(2-(2-(4-((2-chloro-4-(2-chloro-N-(2-oxo-2-(phenethylamino)-1-(thiophen-2-yl)ethyl)acetamido)phenoxy)methyl)-1H-1,2,3-triazol-1-yl)ethoxy)ethoxy)ethoxy)ethyl)benzamide]", "values": [{"measurement": "Ubiquitination of GPX4", "setting": "GPX4", "result": "obviously increase the ubiquitination of GPX4"}, {"measurement": "Fluorescence intensity of C11-BODIPY 581/591 (lipid peroxidation)", "setting": "intracellular LPO", "result": "markedly enhanced"}, {"measurement": "TGI (tumor growth inhibition)", "setting": "HT1080 xenograft tumor; 30 mg/kg IP once daily", "result": 52, "unit": "%"}, {"measurement": "TGI (tumor growth inhibition)", "setting": "HT1080 xenograft tumor; 60 mg/kg IP once daily", "result": 67, "unit": "%"}, {"measurement": "Body weight of the mice", "setting": "HT1080 xenograft tumor; 30 or 60 mg/kg IP once daily", "result": "did not obviously reduce the body weight"}, {"measurement": "H&E staining of major organs (heart, liver, spleen, lung, kidney)", "setting": "HT1080 xenograft tumor; GDAz-3-treated group", "result": "did not observe significant toxic changes in the major organs"}, {"measurement": "pKd", "setting": "human Hsc70", "result": 7.74}]}
